Assay results as given in US20250194600A1, “MESOIONIC ARYLPYRIDAZINIUM DERIVATIVE OR SALT THEREOF AND INSECTICIDAL AGENT CONTAINING THE COMPOUND AND METHOD FOR USING SAME” (NIHON NOHYAKU CO., LTD., priority 2022, published 2025).

Assays:
[1] = system: Western flower thrips (Frankliniella occidentalis); assay: Insecticidal test on western flower thrips, larvae on kidney bean leaf pieces; assay type: in vivo; conditions: 96 h, hatched larvae on kidney bean leaf pieces, counted 4 days after treatment, read-out: insecticidal efficacy (corrected mortality rate) against western flower thrips
Description: (§1) • A: the mortality rate is 100%. • B: the mortality rate is 90 to 99%. • C: the mortality rate is 80 to 89%. • D: the mortality rate is 50 to 79%. • E: the mortality rate is 0 to 49.
Insecticidal Test on Western flower thrips (Frankliniella occidentalis)
Female adults of western flower thrips were inoculated onto kidney bean leaf pieces, and allowed to lay eggs thereon for one day, then the female adults were removed. After 3 days, the hatched larvae on the leaf pieces were counted, and then the agrochemical dispersions diluted to 50 ppm or 500 ppm, each of which contained the compound described in Tables 1 to 5 as an active ingredient were applied. The number of larvae of the species surviving at 4 days after the treatment was counted, and the corrected mortality rate was calculated according to the formula shown below, and the insecticidal efficacy was evaluated according to the criteria of Test Example 1. This test was conducted in duplicate.

[2] = system: Small Brown Planthopper (Laodelphax striatellus); assay: Insecticidal test on small brown planthopper, dip treatment of rice plant seedlings; assay type: in vivo; conditions: 192 h, rice seedlings dipped 30 seconds, 3rd-instar larvae, counted 8 days after inoculation, read-out: insecticidal efficacy (corrected mortality rate) against small brown planthopper
Description: as §1
Insecticidal Test on Small Brown Planthopper (Laodelphax striatellus)
The compounds represented by the general formula (1) of the present invention or salts thereof were separately dispersed in water and diluted to 50 ppm or 500 ppm. Rice plant seedlings (variety: Nihonbare) were dipped in the agrochemical dispersions for 30 seconds. After air-dried, each seedling was put into a separate glass test tube and inoculated with ten 3rd-instar larvae of small brown planthopper, and then the glass test tubes were capped with cotton plugs. At 8 days after the inoculation, the numbers of surviving larvae and dead larvae were counted, the corrected mortality rate was calculated according to the formula shown below, and the insecticidal efficacy was evaluated according to the criteria of Test Example 1.

O=C(Nc1ccc(F)cc1)c1c([S-])c[n+](-c2ccc(C(F)(F)F)nc2)nc1O [2-1, 4-((4-fluorophenyl)carbamoyl)-3-hydroxy-1-(6-(trifluoromethyl)pyridin-3-yl)pyridazin-1-ium-5-thiolate]
100%: mortality at 50 ppm ([1]; 50 ppm) | mortality at 500 ppm ([1]; 500 ppm) | mortality at 500 ppm [2]
